{
  "source": "patent US6407075B1",
  "about": "“Fatty acid treatment” (priority 1996, dated 2002)",
  "key": {"[1]": {"tested_on": "toxic side effects of chemotherapy", "test": "Clinical observations in cancer patients receiving conventional chemotherapy plus fatty acids", "type": "in vivo, human patients", "conditions": "patients receiving conventional chemotherapy and the fatty acid at the same time", "from_the_text": "In many instances, the fatty acids have been given to patients who at that same time were receiving conventional chemotherapy for their cancer."}, "[2]": {"tested_on": "cardiotoxicity of doxorubicin", "test": "Cardiotoxicity of doxorubicin in mice pre-treated with fatty acids", "type": "in vivo", "conditions": "20 mg doxorubicin intraperitoneally, fatty acid pre-treatment"}, "[3]": {"tested_on": "lung toxicity of bleomycin", "test": "Lung toxicity (fibrosis) of intratracheal bleomycin in animals", "type": "in vivo", "conditions": "bleomycin into the trachea, about 5-10 IU per kg body weight, 2-4 weeks", "description": "We have recently supported the clinical observations by animal studies on the cardiotoxicity of doxorubicin and the lung toxicity of bleomycin. When 20 mg of doxorubicin (DOX) is given intraperitoneally to mice, the animals usually die within two weeks because of cardiac damage. When animals were pre-treated with LA or with GLA or with EPA or with DHA in various doses and chemical forms, the death rate to the same dose of doxorubicin was reduced to between 20% and 60% depending on the dose and the precise chemical administered. […] Similarly, bleomycin introduced into the trachea of animals under anaesthesia at a dose of about 5-10 IU per kg body weight, within 2-4 weeks the animals develop severe lung fibrosis which is very similar to the fibrosis which occurs in human patients treated with bleomycin. […] In a third animal study, the anti-cancer streptozotocin was used. A major effect of this compound is to damage the islet cells of the pancreas and consequently to lead to insulin dependent diabetes."}, "[4]": {"tested_on": "streptozotocin damage to the islet cells of the pancreas", "test": "Streptozotocin-induced diabetes in rats", "type": "in vivo", "conditions": "fatty acid administered prior to streptozotocin", "from_the_text": "In a third animal study, the anti-cancer streptozotocin was used. A major effect of this compound is to damage the islet cells of the pancreas and consequently to lead to insulin dependent diabetes."}, "[5]": {"tested_on": "side effects of chemotherapy", "test": "Case histories of patients given fatty acid derivatives with chemotherapy", "type": "in vivo, human patients", "from_the_text": "The following histories illustrate use of the invention\nThis chemotherapy regime normally causes severe vomiting and nausea, marked malaise and anorexia.\nC. […] The chemotherapy regime normally causes nausea, vomiting, mucositis and white cell suppression.\nThis normally causes nausea, vomiting, white cell suppression and mucositis."}, "[6]": {"conditions": "case C, breast cancer, 'CMF' regime, 30 g cumulative intravenously, then 2 g/day oral"}, "[7]": {"conditions": "case D, metastatic colon cancer, 5-fluorouracil, 3 g/day from two weeks before and during chemotherapy"}},
  "data": [
    {"molecule": "CC/C=C\\C/C=C\\C/C=C\\C/C=C\\C/C=C\\C/C=C\\CCC(=O)O", "note": "[DHA, docosahexaenoic acid]", "values": [
      {"measurement": "toxic side effects of chemotherapy", "setting": "[1]", "value": "substantially reduced"}
    ]},
    {"molecule": "CC/C=C\\C/C=C\\C/C=C\\C/C=C\\C/C=C\\CCCC(=O)O", "note": "[EPA, eicosapentaenoic acid]", "values": [
      {"measurement": "toxic side effects of chemotherapy", "setting": "[1]", "value": "substantially reduced"}
    ]},
    {"molecule": "CCCCC/C=C\\C/C=C\\C/C=C\\CCCCC(=O)O", "note": "[GLA, gamma-linolenic acid]", "values": [
      {"measurement": "toxic side effects of chemotherapy", "setting": "[1]", "value": "substantially reduced"},
      {"measurement": "reduction in cardiac weight characteristic of doxorubicin toxicity", "setting": "[2]", "value": "considerably attenuated"},
      {"measurement": "lung pathological changes and increased production of fibrous tissue", "setting": "[3]", "value": "almost entirely suppress"},
      {"measurement": "likelihood of the development of diabetes", "setting": "[4]", "value": "greatly reduced"}
    ]},
    {"molecule": "CCCCC/C=C\\C/C=C\\CCCCCCCC(=O)O", "note": "[LA, linoleic acid]", "values": [
      {"measurement": "toxic side effects of chemotherapy", "setting": "[1]", "value": "substantially reduced"},
      {"measurement": "reduction in cardiac weight characteristic of doxorubicin toxicity", "setting": "[2]", "value": "considerably attenuated"},
      {"measurement": "lung pathological changes and increased production of fibrous tissue", "setting": "[3]", "value": "almost entirely suppress"},
      {"measurement": "likelihood of the development of diabetes", "setting": "[4]", "value": "greatly reduced"}
    ]},
    {"molecule": "CCCCC/C=C\\C/C=C\\C/C=C\\CCCCC(=O)[O-].[Li+]", "note": "[lithium salt of gammalinolenic acid]", "values": [
      {"measurement": "general well-being", "setting": "[5]; case B, Hodgkin's disease, 'MOPP' regime, 3 g per day orally", "value": "remained well and able to continue working"},
      {"measurement": "nausea", "setting": "[5]; case B, Hodgkin's disease, 'MOPP' regime, 3 g per day orally from one week before and throughout chemotherapy", "value": "only mild nausea"},
      {"measurement": "nausea", "setting": "[5]; [6]", "value": "only mild nausea"},
      {"measurement": "suppression of the white cell count", "setting": "[5]; [6]", "value": "less than expected"},
      {"measurement": "vomiting or mucositis", "setting": "[5]; [6]", "value": "no vomiting or mucositis"}
    ]},
    {"molecule": "CC/C=C\\C/C=C\\C/C=C\\C/C=C\\C/C=C\\CCCC(=O)OCC(COC(=O)CCC/C=C\\C/C=C\\C/C=C\\C/C=C\\C/C=C\\CC)OC(=O)CCC/C=C\\C/C=C\\C/C=C\\C/C=C\\C/C=C\\CC", "note": "[triglyceride of eicosapentaenoic acid]", "values": [
      {"measurement": "nausea and white cell suppression", "setting": "[5]; [7]", "value": "less than expected"},
      {"measurement": "vomiting or mucositis", "setting": "[5]; [7]", "value": "no vomiting or mucositis"}
    ]},
    {"molecule": "dilinoleoyl-monogammalinolenoyl-glycerol [DLMG]", "values": [
      {"measurement": "general well-being", "setting": "[5]; case A, glioblastoma patient, carmustine", "value": "felt well throughout"},
      {"measurement": "nausea", "setting": "[5]; case A, glioblastoma patient, carmustine, given prior to and during the course", "value": "only very mild nausea"}
    ]}
  ]
}
